Assay results as given in PMC8580996, “2-Oxoglutarate derivatives can selectively enhance or inhibit the activity of human oxygenases” (Nature Communications, 2021).
Values joined by “and” are separate entries in the source; they are usually repeats but may differ in a detail not shown here. Equal values may be shown once. Each block holds one compound with its values, some of them ahead of it.

Key:
Format in all cases: biochemical
FIH [1] = target: T1, FIH (Homo sapiens, UniProt Q9NWT6); assay: SPE-MS FIH turnover (cosubstrate) assay in the absence of 2OG; details: 330 μM 2OG or 2OG derivative, no 2OG, t = 15 min
Summary of the method: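 With 2OG omitted, 2OG analogues were tested as cosubstrates for recombinant FIH, and +16 Da hydroxylated product versus remaining substrate was monitored by C4 solid-phase extraction coupled to MS. Percent conversion came from product integral over summed substrate and product integrals.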

FIH [2] = target: T1, FIH; assay: Competition assay in a single reaction vessel, FIH-catalyzed hydroxylation (SPE-MS)
Experimental: Mean of three independent runs (n = 3; mean ± SD). […] Cosubstrates: a 20 μM 2OG; b 20 μM 2OG; c 20 μM 1; d 20 μM 12; e 20 μM 12 and 100 μM 2OG; f 100 μM 14. Source data are provided as a Source Data file.
Mean of three independent runs (n = 3; mean ± SD). […] Source data are provided as a Source Data file.
Peptide turnover was monitored by SPE-MS using the same instrument configuration (with the exception that the peptides were eluted from the SPE cartridge with 0.1%v/v aqueous formic acid in 80/20 v/v acetonitrile/water) as described above.
FIH and AspH-catalyzed peptide hydroxylations were analyzed simultaneously using SPE-MS as described in the
Methods section; competition experiments were performed in the same reaction vessel using equimolar 2OG
oxygenase and substrate concentrations. […]
Source data are provided as a Source Data file.
FIH and AspH-catalyzed peptide hydroxylations were analyzed simultaneously using SPE-
MS as described in the Methods section; competition experiments were performed in the same reaction vessel
using equimolar 2OG oxygenase and substrate concentrations. […]
2OG, 100 μM 14. Source data are provided as a Source Data file.

FIH [3] = target: T1, FIH; assay: 1H NMR assay of FIH-catalyzed oxidative decarboxylation of cosubstrate, with SPE-MS of final mixture; details: 5 μM FIH, 150 μM CA1-20, 150 μM cosubstrate; for hydroxylation of CA1-20 peptide in final reaction mixture (SPE-MS): t = 10 min; for FIH-catalyzed conversion of cosubstrate to succinate / 2-methylsuccinate (1H NMR): within 5 min
Experimental: Supplementary Figure 2. […] FIH- […]
catalyzed oxidative decarboxylation of 2OG was monitored using a Bruker AVIII 700 NMR machine equipped with a 5 mm 1H(13C/15N) inverse cryoprobe; spectra were analyzed using the Bruker TopSpin 3.6.1 software.
50 μM ammonium iron(II) sulfate hexahydrate (FAS, (NH4)2Fe(SO4)2·6H2O) in 50 mM aqueous Tris-d11 containing 10% v/v D2O (pH 7.5, 25° C). The ratio of the CA 1-20 peptide and the hydroxylated CA 1-20(Ox) peptide, which is the product of the F IH-catalyzed hydroxylation reaction, was determined using SPE-MS after NMR […]
(a) Close-up (3.0-2.2 ppm) of the 1H NMR spectrum of commercial 2OG in 50 mM aqueous Tris-d11 containing 10%v/v D2O (pH 7.5, 25° C); (b) Close-up (3.0-2.2 ppm) of the 1H NMR spectrum of commercial succinate in 50 […]
FIH-catalyzed oxidative decarboxylation of 3-methyl-2OG (1) was monitored using a Bruker AVIII 700 NMR machine equipped with a 5 mm 1H(13C/15N) inverse cryoprobe; spectra were analyzed using the […]
Bruker TopSpin 3.6.1 software. […]
in 50 mM aqueous Tris -d11 containing 10% v/v D2O (pH 7.5, 25° C). The ratio of the CA 1-20 peptide and the hydroxylated CA 1-20(Ox) peptide, which is the product of the FIH -catalyzed hydroxylation reaction, was […]
(a) Close -up (3.4 -0.9 ppm) of the 1H NMR spectrum of synthetic 1 in 50 mM aqueous Tris-d11 containing 10% v/v D2O (pH 7.5, 2 5° C); ( b) Close -up (3.4 -0.9 ppm) of the 1H NMR spectrum of commercial 2 -methylsuccinate ( 36) […]
FIH-catalyzed oxidative decarboxylation of 4-methyl-2OG (12) was monitored using a Bruker AVIII 700 NMR machine equipped with a 5 mm 1H(13C/15N) inverse cryoprobe; spectra were analyzed using the Bruker TopSpin 3.6.1 software.
(NH4)2Fe(SO4)2·6H2O) in 50 mM aqueous Tris-d11 containing 10% v/v D2O (pH 7.5, 25° C). The ratio of the CA 1-20 peptide and the hydroxylated CA 1-20(Ox) peptide, which is the product of the FI H-catalyzed hydroxylation […]
(a) Close -up (3.3 -0.9 ppm) of the 1H NMR spectrum of synthetic 12 in 50 mM aqueous Tris-d11 containing 10% v/v D2O (pH 7.5, 25° C); ( b) Close -up (3.4 -0.9 ppm) of the 1H NMR spectrum of commercial 2 -methylsuccinate ( 36)

T1 sequence (Q9NWT6 whole entry): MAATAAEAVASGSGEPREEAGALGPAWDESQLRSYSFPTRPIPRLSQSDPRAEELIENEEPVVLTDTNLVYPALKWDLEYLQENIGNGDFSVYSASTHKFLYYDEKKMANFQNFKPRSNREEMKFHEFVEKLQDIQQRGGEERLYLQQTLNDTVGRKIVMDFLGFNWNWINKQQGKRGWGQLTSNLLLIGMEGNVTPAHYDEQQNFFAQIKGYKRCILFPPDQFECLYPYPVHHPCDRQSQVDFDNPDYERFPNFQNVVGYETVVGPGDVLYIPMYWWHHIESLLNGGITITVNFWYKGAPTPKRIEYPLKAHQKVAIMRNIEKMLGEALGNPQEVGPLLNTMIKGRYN

FIH activity, %-substrate conversion (FIH [1]; CA1–20 substrate): > 90%
FIH activity, %-substrate conversion (FIH [1]; HIF-1α788–822 substrate): ~55%
substrate hydroxylation (% conversion) (FIH [2]; Fig 2c, 20 μM 1, FIH, 0 min): 3.506 and 4.816 and 5.633
substrate hydroxylation (% conversion) (FIH [2]; Fig 2c, 20 μM 1, FIH, 0.700167 min): 19.4856 and 18.7444 and 19.2793
substrate hydroxylation (% conversion) (FIH [2]; Fig 2c, 20 μM 1, FIH, 1.39933 min): 32.3038 and 30.8139 and 30.8824
substrate hydroxylation (% conversion) (FIH [2]; Fig 2c, 20 μM 1, FIH, 2.10017 min): 43.2797 and 40.6551 and 40.5787
substrate hydroxylation (% conversion) (FIH [2]; Fig 2c, 20 μM 1, FIH, 2.79917 min): 51.3082 and 49.0078 and 49.2389
substrate hydroxylation (% conversion) (FIH [2]; Fig 2c, 20 μM 1, FIH, 3.5005 min): 58.9995 and 56.3411 and 56.671
substrate hydroxylation (% conversion) (FIH [2]; Fig 2c, 20 μM 1, FIH, 4.20083 min): 64.1723 and 62.5798 and 63.2033
substrate hydroxylation (% conversion) (FIH [2]; Fig 2c, 20 μM 1, FIH, 4.9 min): 69.5252 and 67.0447 and 68.2025
substrate hydroxylation (% conversion) (FIH [2]; Fig 2c, 20 μM 1, FIH, 5.60117 min): 73.4042 and 71.6094 and 72.347
substrate hydroxylation (% conversion) (FIH [2]; Fig 2c, 20 μM 1, FIH, 6.29967 min): 77.1725 and 74.6235 and 74.9327
substrate hydroxylation (% conversion) (FIH [2]; Fig 2c, 20 μM 1, FIH, 7.00033 min): 79.731 and 76.5169 and 77.4955
substrate hydroxylation (% conversion) (FIH [2]; Fig 2c, 20 μM 1, FIH, 7.7025 min): 81.4904 and 79.3791 and 79.9762
substrate hydroxylation (% conversion) (FIH [2]; Fig 2c, 20 μM 1, FIH, 8.40233 min): 83.8334 and 81.9815 and 82.8865
substrate hydroxylation (% conversion) (FIH [2]; Fig 2c, 20 μM 1, FIH, 9.10283 min): 86.0072 and 84.3134 and 84.9864
substrate hydroxylation (% conversion) (FIH [2]; Fig 2c, 20 μM 1, FIH, 9.806 min): 87.2729 and 86.3042 and 86.5893
substrate hydroxylation (% conversion) (FIH [2]; Fig 2c, 20 μM 1, FIH, 11.207 min): 89.9552 and 84.6882 and 85.7483
FIH-catalyzed CA1–20 hydroxylation (FIH [2]; Fig 2c, 20 μM 1, after about 8 min): > 80%
hydroxylation of CA1-20 peptide in final reaction mixture (SPE-MS) (FIH [3]): > 90%
FIH-catalyzed conversion of cosubstrate to succinate / 2-methylsuccinate (1H NMR) (FIH [3]): ~ 70%
SMILES: CC(CC(=O)O)C(=O)C(=O)O (stereo not shown) [compound 1, 3-methyl-2OG]

FIH activity, %-substrate conversion (FIH [1]; CA1–20 substrate): ~80%
FIH activity, %-substrate conversion (FIH [1]; HIF-1α788–822 substrate): ~45%
FIH-catalyzed CA1–20 conversion (FIH [2]; Fig 2e, 20 μM 12 and 100 μM 2OG): ~ 90%
substrate hydroxylation (% conversion) (FIH [2]; Fig 2e, 20 μM 12 and 100 μM 2OG, FIH, 0 min): 15.3987 and 14.8576 and 13.209
substrate hydroxylation (% conversion) (FIH [2]; Fig 2e, 20 μM 12 and 100 μM 2OG, FIH, 0.237833 min): 27.0539 and 26.3778 and 23.9445
substrate hydroxylation (% conversion) (FIH [2]; Fig 2e, 20 μM 12 and 100 μM 2OG, FIH, 0.478833 min): 35.9286 and 35.8922 and 32.7293
substrate hydroxylation (% conversion) (FIH [2]; Fig 2e, 20 μM 12 and 100 μM 2OG, FIH, 0.717 min): 45.1159 and 43.9873 and 41.1347
substrate hydroxylation (% conversion) (FIH [2]; Fig 2e, 20 μM 12 and 100 μM 2OG, FIH, 0.956333 min): 51.8274
substrate hydroxylation (% conversion) (FIH [2]; Fig 2e, 20 μM 12 and 100 μM 2OG, FIH, 1.43767 min): 63.7405 and 62.295 and 59.0531
substrate hydroxylation (% conversion) (FIH [2]; Fig 2e, 20 μM 12 and 100 μM 2OG, FIH, 1.67667 min): 68.2711 and 66.7748 and 63.7338
substrate hydroxylation (% conversion) (FIH [2]; Fig 2e, 20 μM 12 and 100 μM 2OG, FIH, 1.918 min): 71.9325 and 70.2648 and 67.9993
substrate hydroxylation (% conversion) (FIH [2]; Fig 2e, 20 μM 12 and 100 μM 2OG, FIH, 2.15883 min): 75.384 and 73.508 and 70.5367
substrate hydroxylation (% conversion) (FIH [2]; Fig 2e, 20 μM 12 and 100 μM 2OG, FIH, 2.6405 min): 81.0929 and 78.2797 and 76.6153
substrate hydroxylation (% conversion) (FIH [2]; Fig 2e, 20 μM 12 and 100 μM 2OG, FIH, 2.88117 min): 82.6978 and 80.7392 and 78.6776
substrate hydroxylation (% conversion) (FIH [2]; Fig 2e, 20 μM 12 and 100 μM 2OG, FIH, 3.12267 min): 85.0838 and 82.5241 and 80.8532
substrate hydroxylation (% conversion) (FIH [2]; Fig 2e, 20 μM 12 and 100 μM 2OG, FIH, 3.36583 min): 85.9652 and 84.4207 and 82.727
substrate hydroxylation (% conversion) (FIH [2]; Fig 2e, 20 μM 12 and 100 μM 2OG, FIH, 3.60733 min): 87.7923 and 85.7936 and 83.2563
substrate hydroxylation (% conversion) (FIH [2]; Fig 2e, 20 μM 12 and 100 μM 2OG, FIH, 3.849 min): 88.932 and 84.1653 and 80.7905
substrate hydroxylation (% conversion) (FIH [2]; Fig 2d, 20 μM 12, FIH, 0 min): 8.164 and 7.161 and 7.808
substrate hydroxylation (% conversion) (FIH [2]; Fig 2d, 20 μM 12, FIH, 0.707167 min): 31.5759 and 26.6674 and 29.4313
substrate hydroxylation (% conversion) (FIH [2]; Fig 2d, 20 μM 12, FIH, 1.41317 min): 48.4989 and 42.8597 and 46.6007
substrate hydroxylation (% conversion) (FIH [2]; Fig 2d, 20 μM 12, FIH, 2.12133 min): 61.9239 and 55.8625 and 59.591
substrate hydroxylation (% conversion) (FIH [2]; Fig 2d, 20 μM 12, FIH, 2.822 min): 71.1548 and 65.8729 and 69.0603
substrate hydroxylation (% conversion) (FIH [2]; Fig 2d, 20 μM 12, FIH, 3.52117 min): 77.6139 and 72.8151 and 76.4316
substrate hydroxylation (% conversion) (FIH [2]; Fig 2d, 20 μM 12, FIH, 4.22083 min): 82.6095 and 78.8355 and 81.4405
substrate hydroxylation (% conversion) (FIH [2]; Fig 2d, 20 μM 12, FIH, 4.9205 min): 86.3253 and 83.0223 and 85.6621
substrate hydroxylation (% conversion) (FIH [2]; Fig 2d, 20 μM 12, FIH, 5.62167 min): 89.1149 and 86.1539 and 88.6579
substrate hydroxylation (% conversion) (FIH [2]; Fig 2d, 20 μM 12, FIH, 6.3215 min): 91.4092 and 88.7795 and 90.8352
substrate hydroxylation (% conversion) (FIH [2]; Fig 2d, 20 μM 12, FIH, 7.02117 min): 93.1171 and 89.921 and 92.1057
substrate hydroxylation (% conversion) (FIH [2]; Fig 2d, 20 μM 12, FIH, 7.724 min): 94.3469 and 91.6232 and 93.2231
substrate hydroxylation (% conversion) (FIH [2]; Fig 2d, 20 μM 12, FIH, 8.42383 min): 95.3806 and 92.9188 and 94.5877
substrate hydroxylation (% conversion) (FIH [2]; Fig 2d, 20 μM 12, FIH, 9.1255 min): 96.194 and 94.1363 and 95.5545
substrate hydroxylation (% conversion) (FIH [2]; Fig 2d, 20 μM 12, FIH, 9.83 min): 97.3851 and 94.9972 and 96.1755
substrate hydroxylation (% conversion) (FIH [2]; Fig 2d, 20 μM 12, FIH, 10.5315 min): 98.7917 and 94.9441 and 95.9828
FIH-catalyzed CA1–20 hydroxylation (FIH [2]; Fig 2d, 20 μM 12, after ~5 min): ~ 90%
hydroxylation of CA1-20 peptide in final reaction mixture (SPE-MS) (FIH [3]): > 95%
FIH-catalyzed conversion of cosubstrate to succinate / 2-methylsuccinate (1H NMR) (FIH [3]): ~ 65%
SMILES: CC(CC(=O)C(=O)O)C(=O)O (stereo not shown) [compound 12, 4-methyl-2OG]
